US20220332799A1, “HERV INHIBITORS FOR USE IN TREATING TAUOPATHIES” (Deutsches Zentrum Für Neurodegenerative Erkrankungen E.V. …, priority 2019, published 2022)

How the values were obtained:
HERV-K = details: Tyagi et al., Retrovirology (2017), 14:21; cited from earlier work
MuERV Env and Gag = assay type: cell-based, mouse; details: s2E P1 donors; Aza 200 nM or Dec 100 nM, then 5 days without drug; vs DMSO
Method: To inhibit methyltransferases, s2E P1 donor cells were treated for three days with methyltransferase inhibitors 5-Azacytidine (Aza) 200 nM, Decitabine (Dec) 100 nM or DMSO as solvent control. Subsequently, the cells were cultured in the absence of the drugs for 5 days. Pre-treated donor cells were subsequently cocultured with recipient cells as described above to monitor aggregate induction efficiency in recipient N2a NM-GFP^sol cells. Cell lysates of donor cells were also analyzed for MuERV Env and Gag expression levels by western blot. To increase DNA methylation, the s2E donor clone (P21) was treated with methyl group donors L-methionine (L-M) 80 mM, Betaine (B) 80 mM, Choline chloride (CC) 20 mM or medium control for 6 days. MuERV Env and Gag protein levels were analyzed by western blot. Subsequently, cells were cocultured with recipient cells for 16 h. The percentage of aggregate containing recipient cells was compared to the percentage of aggregate bearing recipients cocultured with solvent-treated donors.
Pre-designed siRNAs against murine XPR1 and mCat-1 genes were used to knock-down genes coding for putative receptors. For transfection, 2-4×10^5 cells/well were seeded on 6 well plates. The next day, 30 nM siRNA or plasmid DNA was transfected using Lipofectamine RNAiMAX or Lipofectamine2000 transfection reagent, respectively, according to the manufacturer's instructions (Thermo Fisher Scientific). After 2 days, transfected cells were harvested for aggregate induction assays and qRT-PCR, western blot analysis.
For Western blot analysis, protein concentrations were measured using the Quick Start™ Bradford Protein assay (Bio-Rad). Proteins were separated on NuPAGE®Novex® 4-12 Bis-Tris Protein Gels (Life Technologies) followed by transfer onto a PVDF membrane (GE Healthcare). Western blot analysis was performed using rat hybridoma anti-MuERV Env mAb83A25; anti-xenotropic MuLV virus antibody ABIN457298 for detecting both Env and Gag (antibodies-online); mouse anti-MuERV Gag ab100970 (Abcam); mouse anti-Alix (1:1000; BD Bioscience); rat anti-HA 3F10 (1:1000; Roche); mouse anti-GAPDH 6C5 (1:5000; Abcam); mouse anti-Hsc/Hsp70 N27F3-4 (1:1000; ENZO); mouse anti-VSV-G A5977 (Sigma); rabbit anti-Tau ab64193 (Abcam); mouse anti-HERV K Env HERM-1811-5 (Amsbio); mouse anti-HERV K Gag HERM-1841-5 (Amsbio). The membrane was incubated with Pierce™ ECL Western Blotting Substrate (Thermo Fisher Scientific) according to the manufacturer's recommendations.

HEK Tau-FRsol cells = test: Tau-FR aggregate induction by coculture with MCF-7 Tau-GFPAD donor cells; assay type: cell-based, human; details: donors pretreated with 2 μM for 4 d; coculture 3 d without drug; vs DMSO
Method: FIG. 14: Human endogenous retroviruses contribute to the spreading of protein aggregates. • a. Experimental workflow. A human breast cancer cell line MCF-7 (4) was engineered to stably express Tau-GFP and induced to propagate Tau aggregates by exposure to Alzheimer's disease brain homogenate (AD). A single cell clone was subsequently isolated and used in the experiment (MCF-7 Tau-GFPAD). This donor clone was treated with 2 μM 5-Aza-2-deoxycytidine (Aza) for 4 d to de-repress HERV expression. Pretreated donor cells were cocultured with HEK-Tau-FRsol cells. • b. […] Statistics: Unpaired Student's t-test (n=3). • c. Quantitative analysis of recipient cells with induced Tau-FR aggregates following coculture with DMSO-treated or Aza-treated donor cells. […] Recipients were subsequently cocultured with transduced donors that had been passaged at least 5 times post transduction. • e. shRNA-mediated downregulation of Syncytin-1 mRNA in MCF-7 Tau-GFPAD cells assessed by quantitative real-time PCR. […] Quantitative analysis of recipient cells with induced Tau-FR aggregates following coculture with donors with decreased HERV-W Syncytin-1 expression. […]
To inhibit methyltransferase, MCF-7 Tau-GFPAD cells were treated with 2 μM Aza or DMSO for 4 d. […] Afterwards, the total numbers of viable cells and the viability upon drug treatments were determined using the Vi-VELLTMXR Cell Viability Analyzer (Beckman Coulter). […]

| Structure (SMILES) | effectiveness against HERV-K (HERV-K) | expression of MuERV proteins (MuERV Env and Gag) | recipient cells with induced Tau-FR aggregates in cocultures (HEK Tau-FRsol cells) |
| --- | --- | --- | --- |
| CC(C)CN(C[C@@H](O)[C@H](Cc1ccccc1)NC(=O)O[C@H]1CCOC1)S(=O)(=O)c1ccc(N)cc1 [Amprenavir] | effective against HERV-K |  |  |
| Nc1ncn([C@H]2C[C@H](O)[C@@H](CO)O2)c(=O)n1 [Decitabine, 5-aza-2′-deoxycytidine] |  | increased expression | increased recipient cells with aggregates in cocultures |
